Measurements reported in patent US20080305092A1, “Methods of treating autoimmune disease via CTLA-4IG” (THE REGENTS OF THE UNIVERSITY OF MICHIGAN, priority 1993, published 2008).

Key:
[1] = tested on: CD28-stimulated IL-2 production of T cells; experiment: CD28-stimulated IL-2 production with or without herbimycin A, bioassay; details: for IL-2: cells cultured in the single agent only, 24 h
Method: Cells. The CD28^+ subset of T cells was isolated from peripheral blood T lymphocytes by negative selection using immunoabsorption with goat anti-mouse Ig-coated magnetic particles as previously described in June, C. […] In some instances, T cells or Jurkat cells were cultured in complete media, or in complete media with 5 ng/ml PMA (Sigma Chemical Co., St. Louis, Mo.) or OKT3 beads (±5 beads/cell) before experiments.
To address the potential role of tyrosine kinases in CD28-triggered signaling, the effect of herbimycin A, an inhibitor of the src family protein tyrosine kinases (see Uehara, Y. et al., Biochem. Biophys. Res. Commun., 163:803 (1989)), on the CD28-triggered enhancement of IL-2 production was investigated. T cells were cultured overnight in the absence (depicted as open bars in FIG. 15) or presence (depicted as filled bars in FIG. 15) of herbimycin A (1 μM). […] Cell-free supernatant was collected, dialized to remove herbimycin A and serial dilutions were analyzed for IL-2 content by bioassay as described in June, J. Immunol., supra (1989).

[2] = tested on: CD28-induced tyrosine phosphorylation; experiment: Anti-phosphotyrosine immunoblot of PMA-treated T cells; type: cell-based, human; details: T cells treated overnight with PMA 5 ng/ml and herbimycin A
Method: Immunoblot analysis of protein tyrosine phosphorylation. Details of the immunoblot assay with anti-phosphotyrosine antibodies has been described in Hsi, E. D. et al., J. Biol. Chem., 264:10836 (1989) and June, C. H. et al., J. Immunol., 144:1591 (1990). Cells were suspended at 5−10×10^7 cells/ml in reaction media, i.e., HBSS containing 0.8% FCS and 20 Mm Hepes at 37° C. at time—3 m and stimulated at time 0 m. mAbs were used at 10 μg/ml final concentration. For crosslinking, biotinylated mAbs were incubated with cells for 5-8 m at room temperature, the cells prewarmed at time 3 min and stimulated with avidin (Sigma Chemical Co.) at a final concentration of 40 μg/ml at time 0. Stimulation was terminated by the addition of ice-cold 10× lysis buffer, yielding a final concentration of 0.5% Triton X-100. See June, J. Immunol., supra (1990).
CD28-induced tyrosine phosphorylation prevented by CD45 and by herbimycin. […] T cells were treated overnight with PMA (5 ng/ml) in the presence of the indicated concentration of herbimycin A or in control medium. […] Detergent-soluble proteins were processed as previously described.
To address the effects of phosphatases on CD28-mediated signal transduction, T cells were cultured overnight with PMA (5 ng/ml). […] Monoclonal antibodies were crosslinked with avidin at time 0. The reaction was terminated after 2 m. […]

[3] = tested on: CD28^+ T cells; experiment: Lymphokine secretion (IL-2, TNF-α/LT, IFN-γ, GM-CSF) by stimulated CD28+ T cells, with or without cyclosporine; type: cell-based, human; details: supernatant at 24 h; CSP 0.6 μg/ml where in label
[4] = tested on: CD28^+ T cells; experiment: Cell cycle analysis (S+G2+M), propidium iodide flow cytometry; type: cell-based, human; details: 48 h after stimulation
Method: In separate experiments, the relative levels of IL-2 for each of the culture conditions above were independently confirmed using a commercially available ELISA assay (Genzyme Corp., Boston, Mass.). TNF-α/LT levels were measured using a semi-automated L929 fibroblast lytic assay as previously described by Kunkel et al., J. Biol. Chem., 263:5380-5384 (1988). Units of TNF-α/LT were defined using an internal standard for TNF-α (Genzyme Corp., Boston Mass.). […] IFN-γ was measured by radioimmunoassay using a commercially available kit (Centocor, Malvern, Pa.). Units for IFN-γ were determined from a standard curve using ^125I-labeled human IFN-γ provided in the test kit. GM-CSF was detected by stimulation of proliferation of the human GM-CSF-dependent cell line AML-193, as described by Lange et al., Blood, 70:192-199 (1987), in the presence of neutralizing monoclonal antibodies to TNF-α and LT. The ^3H-thymidine uptake induced by 10 ng/ml of purified GM-CSF (Genetics Institute, Cambridge, Mass.) was defined as 100 U. Separate aliquots of cells were recovered 48 h after stimulation and assayed for the percentage of cells in late stages of the cell cycle (S+G2+M) by staining of cells with propidium iodide and analysis by flow cytometry as previously described by Thompson et al., Nature, 314:363-366 (1985). […]

[5] = tested on: Daudi; experiment: Cytotoxicity of activated cells against Daudi; type: cell-based, human
Method: (§1) One lytic unit is equivalent to 20% lysis of 5×10^3 target cells per 1×10^6 effector cells as discussed in Press, H. F. et al., J. Clin. Immunol. 1:51-83 (1981). Various targets, including Daudi and K562, were tested.
In 5 different subjects, PBL were compared with T cells (E^+) in their ability to kill Daudi, K562, and BSB cells 8 days after being activated with OKT3. These experiments were performed in X-Vivo 10 supplemented with 5% human serum (HS). […]
Cytotoxicity induced by soluble or immobilized OKT3. In 7 experiments, cytotoxicity mediated by T cells after activation was compared with soluble or immobilized OKT3. […] These experiments were performed with E^+ cells in RPMI 1640 supplemented with 10% fetal bovine serum (FBS). Cytotoxicity was assessed 7 to 8 days after triggering with soluble (10 ng/ml) or immobilized (2 μg/ml) OKT3.
Either soluble OKT3 10 ng/ml(s) or immobilized OKT3 (coated with 2 μg/ml)(I) were added as indicated. […]

[6] = tested on: PBL, T cells or BMMNC; experiment: Proliferation and expansion of PBL, T cells or BMMNC after OKT3 activation; type: cell-based, human; details: for Proliferation ^3H incorp.: day 3
From the text: (§2) Cytotoxicity as a function of in vitro time in cell culture. […] Cytotoxicity was a strong function of culture duration however, with <0.1, 24, 3.5, 0.5, 1.0 LU at 0, 8, 15, 22, and 29 days of culture. Similar results were found when Daudi was the target, with <0.01, 23, 5, 2, and 5 LU at 0, 8, 15, 22, and 29 days of culture.
(§3) Although the BMMNC population initially contained only 25% CD3^+ cells, proliferative and cytotoxic responses were excellent after 2 weeks of culture. […] In 4 experiments using normal bone marrow or autologous bone marrow, there was a median of 89-fold expansion of cells (range 18- to 173-fold) after 9 to 19 days of culture. Mean cytotoxicity directed at Daudi and K562 mediated by BMMNC stimulated with OKT3 was 5.5 LU (range 2-11) and 4.3 LU (range 2-8), respectively. […] Either soluble OKT3 10 ng/ml(s) or immobilized OKT3 (coated with 2 μg/ml)(I) were added as indicated.
(§4) Proliferative and cytotoxic responses from 3 patients were tested. […] Proliferation was assessed on day 3 of culture and cytotoxicity on day 7.

[7] = tested on: K562; experiment: Cytotoxicity of activated cells against K562; type: cell-based, human
Method: as §1
In 5 different subjects, PBL were compared with T cells (E^+) in their ability to kill Daudi, K562, and BSB cells 8 days after being activated with OKT3. These experiments were performed in X-Vivo 10 supplemented with 5% human serum (HS). The mean cytotoxicity in 5 normal subjects using PBL directed at Daudi, K562, and BSB were 15.0, 7.4, and 9.2 LU, respectively. In T cells from the same 5 subjects, the mean cytotoxicity directed at Daudi, K562, and BSB were 14.3, 7.7, and 9.3 LU, respectively.
as §2
Cytotoxicity induced by soluble or immobilized OKT3. In 7 experiments, cytotoxicity mediated by T cells after activation was compared with soluble or immobilized OKT3. Both methods induced cytotoxicity directed at Daudi and K562. Soluble OKT3 activated T cells mediated a mean cytotoxicity of 27 LU (SD-18) directed at Daudi and a mean cytotoxicity of 21 LU (SD-16) directed at K562. Immobilized OKT3 activated T cells mediated a mean cytotoxicity of 22 LU (SD-16) directed at Daudi and a mean cytotoxicity of 12 LU (SD-8) directed at K562. These experiments were performed with E^+ cells in RPMI 1640 supplemented with 10% fetal bovine serum (FBS). Cytotoxicity was assessed 7 to 8 days after triggering with soluble (10 ng/ml) or immobilized (2 μg/ml) OKT3.
as §3, §4

[8] = tested on: CD28^+ T cells; experiment: IL-4, IL-5, IFN and IL-2 in supernatants by ELISA, initial stimulation and restimulation
[9] = tested on: CD28^+ T cells; experiment: T cell proliferation (3H-thymidine) in the presence of cyclosporine or dexamethasone; type: cell-based, human
Method: T cells, enriched by nylon wool filtration as described by Julius, et al., Euro. […] The above combinations also included […] titrations (from 25 ng/ml to 1.6 μg/ml) of cyclosporine (CSP) (Sandoz, Hanover, N.J.) dissolved in ethanol-Tween 80 as described by Wiesinger, et al., Immunobiol., 156:454-463 (1979).
^3H-thymidine incorporation was measured on day 3 of culture and the results representative of eight independent experiments are depicted in FIG. 3. […] Table 6 below illustrates the effects of cyclosporine on CD3-induced proliferation of CD28^+ T cells cultured at approximately 5×10^4 cells/well in flat-bottomed 96-well microtiter plates (CoStar, Cambridge, Mass.) under the following conditions: immobilized Mab G19-4; or immobilized mAb G19-4 and mAb 9.30 100 ng/ml; or immobilized mAb G19-4 and PMA 1 ng/ml; or Mab 9.3 100 ng/ml and PMA 1 ng/ml. Cyclosporine was prepared as above and included in the cultures at 0, 0.2, 0.4, 0.8, 1.2 μg/ml.
^3H-thymidine incorporation was determined on day 3 of culture as above. […] CD28^+ T cells cultured in the absence of cyclosporine were given cyclosporine diluent. ^3H-thymidine incorporation of cells cultured in medium, or PMA, or monoclonal antibody 9.3 only were less than 150 cpm.

[10] = BMMNC, 14 days after activation, 50 IU/ml IL-2
[11] = E+ cells, 7 to 8 days after triggering, 7 experiments, listed as Immobilized OKT3
[12] = E+ cells, 7 to 8 days after triggering, 7 experiments, listed as Soluble OKT3
[13] = PBL, 5 normal subjects, 8 days after activation
[14] = RESTIMULATION after 8 days, further 24 h

CO[C@H]1[C@@H](OC)C[C@H](C)[C@@H](OC)C2=CC(=O)C=C(NC(=O)/C(C)=C/C=C\[C@H](OC)[C@@H](OC(N)=O)/C(C)=C/[C@@H]1C)C2=O [herbimycin A]
PMA plus ionomycin-stimulated IL-2 secretion ([1]; herbimycin A 1 μM): resistant | Tyrosine phosphorylation induced by anti-CD28 mAb [2]: nearly completely prevented

C[C@H](CCC(=O)O)C[C@H](C)C[C@H](C)C(=O)/C=C(\O)[C@H](C)C[C@H](C)C/C=C/[C@@H](C)[C@@H](O)[C@@H](C)[C@@H](O)C[C@@H]1CC[C@@](C)([C@H]2CC[C@@](C)([C@@H](C)O)O2)O1 [Ionomycin, ionomycin]
IFN-γ [3]: 0 U/ml | IL-2 [3]: <2 U/ml | TNF-α/LT [3]: 0 U/ml | S + G2 + M [4]: 6.6% | IL-2 [1]: < 10 U/ml

OKT3: anti-CD3 mAb OKT3 (IgG2a), soluble or immobilized
mean cytotoxicity directed at Daudi [5, 10]: 5.5 LU | mean cytotoxicity directed at Daudi [5, 11]: 22 LU | mean cytotoxicity directed at Daudi [5, 12]: 27 LU | mean cytotoxicity directed at Daudi [5, 13]: 15.0 LU | mean cytotoxicity directed at Daudi ([5]; T cells (E+), same 5 subjects): 14.3 LU | Proliferation ^3H incorp. ([6]; Bone Marrow #171, AML, Relapsed): 23,479 cpm | Proliferation ^3H incorp. ([6]; PBL P#632, non-Hodgkins lymphoma, pre-transplant): 58,670 cpm | Proliferation ^3H incorp. ([6]; PBL P#635, Hodgkins lymphoma, pre-transplant): 27,758 cpm | median expansion of cells ([6]; normal or autologous bone marrow, 4 experiments, 9 to 19 days): 89 fold | mean cytotoxicity directed at K562 [7, 10]: 4.3 LU | mean cytotoxicity directed at K562 [7, 11]: 12 LU | mean cytotoxicity directed at K562 [7, 12]: 21 LU | mean cytotoxicity directed at K562 [7, 13]: 7.4 LU | mean cytotoxicity directed at K562 ([7]; T cells (E+), same 5 subjects): 7.7 LU

CCCCCCCCCCCCCC(=O)O[C@@H]1[C@@H](C)[C@@]2(O)[C@@H](C=C(CO)C[C@]3(O)C(=O)C(C)=C[C@@H]23)[C@@H]2C(C)(C)[C@]12OC(C)=O [PMA, phorbol myristate acetate]
IFN-γ [3]: 0 U/ml | IL-2 [3]: <2 U/ml | TNF-α/LT [3]: 0 U/ml | IFN ([8]; INITIAL, 24 h of culture): 152 pg/mL | IL-2 ([8]; INITIAL, 24 h of culture): .07 U/ml | IL-4 ([8]; INITIAL, 24 h of culture): <1 pg/mL | IL-5 ([8]; INITIAL, 24 h of culture): <1 pg/mL | IFN [8, 14]: <1 pg/mL | IL-2 [8, 14]: 0.6 U/ml | IL-4 [8, 14]: <1 pg/mL | IL-5 [8, 14]: <1 pg/mL | S + G2 + M [4]: 5.5% | IL-2 [1]: < 10 U/ml | ^3HTdR ([9]; Dexamethasone 0 Nm): 5,000 | ^3HTdR ([9]; Dexamethasone 25 Nm): 1,400 | ^3H-thymidine incorporation ([9]; cells cultured with the single agent only): less than 150 cpm | % INHIBIT ([9]; inhibition of proliferation by dexamethasone): 72%
